Test results: ChEMBL document CHEMBL3994622, “Design and synthesis of new RAF kinase-inhibiting antiproliferative quinoline derivatives. Part 2: Diarylurea derivatives” (Eur J Med Chem, 2017)

How the values were obtained:
[1] = test system: OVCAR-3; experiment: Growth inhibition of human OVCAR3 cells assessed as cell growth at 0.005 uM incubated for 48 hrs by sulforhodamine B assay relative to control; type: functional; details: OVCAR-3, 48 h, read-out: Activity
[2] = test system: ACHN; experiment: Growth inhibition of human ACHN cells assessed as cell growth at 0.005 uM incubated for 48 hrs by sulforhodamine B assay relative to control; type: functional; details: read-out: Activity
[3] = test system: PC-3; experiment: Growth inhibition of human PC3 cells assessed as cell growth at 0.005 uM incubated for 48 hrs by sulforhodamine B assay relative to control; type: functional; details: PC-3, 48 h, read-out: Activity
[4] = test system: MDA-MB-231; experiment: Growth inhibition of human MDA-MB-231 cells assessed as cell growth at 0.005 uM incubated for 48 hrs by sulforhodamine B assay relative to control; type: functional; details: MDA-MB-231, 48 h, read-out: Activity
[5] = test system: K562; experiment: Growth inhibition of human K562 cells assessed as cell growth at 0.05 uM incubated for 48 hrs by sulforhodamine B assay relative to control; type: functional; details: K562, 48 h, read-out: Activity
[6] = test system: NCI-H226; experiment: Growth inhibition of human NCI-H226 cells assessed as cell growth at 0.05 uM incubated for 48 hrs by sulforhodamine B assay relative to control; type: functional; details: NCI-H226, 48 h, read-out: Activity
[7] = test system: SF-268; experiment: Growth inhibition of human SF268 cells assessed as cell growth at 0.05 uM incubated for 48 hrs by sulforhodamine B assay relative to control; type: functional; details: SF-268, 48 h, read-out: Activity
[8] = test system: SK-MEL-2; experiment: Growth inhibition of human SK-MEL-2 cells assessed as cell growth at 0.05 uM incubated for 48 hrs by sulforhodamine B assay relative to control; type: functional; details: SK-MEL-2, 48 h, read-out: Activity
[9] = test system: OVCAR-4; experiment: Growth inhibition of human OVCAR4 cells assessed as cell growth at 0.05 uM incubated for 48 hrs by sulforhodamine B assay relative to control; type: functional; details: OVCAR-4, 48 h, read-out: Activity
[10] = test system: OVCAR-5; experiment: Growth inhibition of human OVCAR5 cells assessed as cell growth at 0.05 uM incubated for 48 hrs by sulforhodamine B assay relative to control; type: functional; details: OVCAR-5, 48 h, read-out: Activity
[11] = test system: HOP-62; experiment: Growth inhibition of human HOP62 cells assessed as cell growth at 0.5 uM incubated for 48 hrs by sulforhodamine B assay relative to control; type: functional; details: HOP-62, 48 h, read-out: Activity
[12] = test system: SF-268; experiment: Growth inhibition of human SF268 cells assessed as cell growth at 0.5 uM incubated for 48 hrs by sulforhodamine B assay relative to control; type: functional; details: SF-268, 48 h, read-out: Activity
[13] = test system: OVCAR-3; experiment: Growth inhibition of human OVCAR3 cells assessed as cell growth at 0.5 uM incubated for 48 hrs by sulforhodamine B assay relative to control; type: functional; details: OVCAR-3, 48 h, read-out: Activity
[14] = test system: UO-31; experiment: Growth inhibition of human UO31 cells assessed as cell growth at 0.5 uM incubated for 48 hrs by sulforhodamine B assay relative to control; type: functional; details: UO-31, 48 h, read-out: Activity
[15] = test system: NCI-H322M; experiment: Growth inhibition of human NCI-H322M cells assessed as cell growth at 5 uM incubated for 48 hrs by sulforhodamine B assay relative to control; type: functional; details: read-out: Activity
[16] = test system: HCC 2998; experiment: Growth inhibition of human HCC2998 cells assessed as cell growth at 5 uM incubated for 48 hrs by sulforhodamine B assay relative to control; type: functional; details: HCC 2998, 48 h, read-out: Activity
[17] = test system: SNB-75; experiment: Growth inhibition of human SNB75 cells assessed as cell growth at 5 uM incubated for 48 hrs by sulforhodamine B assay relative to control; type: functional; details: SNB-75, 48 h, read-out: Activity
[18] = test system: LOX IMVI; experiment: Growth inhibition of human LOXIMVI cells assessed as cell growth at 5 uM incubated for 48 hrs by sulforhodamine B assay relative to control; type: functional; details: read-out: Activity
[19] = test system: SK-MEL-5; experiment: Growth inhibition of human SK-MEL-5 cells assessed as cell growth at 5 uM incubated for 48 hrs by sulforhodamine B assay relative to control; type: functional; details: SK-MEL-5, 48 h, read-out: Activity
[20] = test system: UACC-257; experiment: Growth inhibition of human UACC257 cells assessed as cell growth at 5 uM incubated for 48 hrs by sulforhodamine B assay relative to control; type: functional; details: UACC-257, 48 h, read-out: Activity
[21] = test system: OVCAR-5; experiment: Growth inhibition of human OVCAR5 cells assessed as cell growth at 5 uM incubated for 48 hrs by sulforhodamine B assay relative to control; type: functional; details: OVCAR-5, 48 h, read-out: Activity
[22] = test system: NCI-H522; experiment: Growth inhibition of human NCI-H522 cells assessed as cell growth at 50 uM incubated for 48 hrs by sulforhodamine B assay relative to control; type: functional; details: NCI-H522, 48 h, read-out: Activity
[23] = test system: KM12; experiment: Growth inhibition of human KM12 cells assessed as cell growth at 50 uM incubated for 48 hrs by sulforhodamine B assay relative to control; type: functional; details: KM12, 48 h, read-out: Activity
[24] = test system: SF-539; experiment: Growth inhibition of human SF539 cells assessed as cell growth at 50 uM incubated for 48 hrs by sulforhodamine B assay relative to control; type: functional; details: SF-539, 48 h, read-out: Activity
[25] = test system: SNB-75; experiment: Growth inhibition of human SNB75 cells assessed as cell growth at 50 uM incubated for 48 hrs by sulforhodamine B assay relative to control; type: functional; details: SNB-75, 48 h, read-out: Activity
[26] = test system: OVCAR-4; experiment: Growth inhibition of human OVCAR4 cells assessed as cell growth at 50 uM incubated for 48 hrs by sulforhodamine B assay relative to control; type: functional; details: OVCAR-4, 48 h, read-out: Activity
[27] = test system: MDA-MB-468; experiment: Growth inhibition of human MDA-MB-468 cells assessed as cell growth at 0.1 uM incubated for 48 hrs by sulforhodamine B assay relative to control; type: functional; details: MDA-MB-468, 48 h, read-out: Activity
[28] = target: T1, Serine/threonine-protein kinase B-raf (Homo sapiens, UniProt P15056); experiment: Inhibition of human BRAF at 10 uM using MEK1 as substrate in presence of [33P]ATP by Hotspot assay relative to control
[29] = target: T1, Serine/threonine-protein kinase B-raf; experiment: Inhibition of human BRAF using MEK1 as substrate in presence of [33P]ATP by Hotspot assay
[30] = test system: Serine/threonine-protein kinase B-raf (Homo sapiens), P15056 [V600E]; experiment: Inhibition of human BRAF V600E mutant at 10 uM using MEK1 as substrate in presence of [33P]ATP by Hotspot assay relative to control
[31] = test system: EKVX; experiment: Growth inhibition of human EKVX cells assessed as cell growth at 0.003 uM incubated for 48 hrs by sulforhodamine B assay relative to control; type: functional; details: read-out: Activity
[32] = test system: EKVX; experiment: Growth inhibition of human EKVX cells assessed as cell growth at 0.03 uM incubated for 48 hrs by sulforhodamine B assay relative to control; type: functional; details: read-out: Activity
[33] = test system: HOP-62; experiment: Growth inhibition of human HOP62 cells assessed as cell growth at 30 uM incubated for 48 hrs by sulforhodamine B assay relative to control; type: functional; details: HOP-62, 48 h, read-out: Activity
[34] = test system: MDA-MB-468; experiment: Growth inhibition of human MDA-MB-468 cells assessed as cell growth at 0.3 uM incubated for 48 hrs by sulforhodamine B assay relative to control; type: functional; details: MDA-MB-468, 48 h, read-out: Activity

T1 sequence (P15056 whole entry): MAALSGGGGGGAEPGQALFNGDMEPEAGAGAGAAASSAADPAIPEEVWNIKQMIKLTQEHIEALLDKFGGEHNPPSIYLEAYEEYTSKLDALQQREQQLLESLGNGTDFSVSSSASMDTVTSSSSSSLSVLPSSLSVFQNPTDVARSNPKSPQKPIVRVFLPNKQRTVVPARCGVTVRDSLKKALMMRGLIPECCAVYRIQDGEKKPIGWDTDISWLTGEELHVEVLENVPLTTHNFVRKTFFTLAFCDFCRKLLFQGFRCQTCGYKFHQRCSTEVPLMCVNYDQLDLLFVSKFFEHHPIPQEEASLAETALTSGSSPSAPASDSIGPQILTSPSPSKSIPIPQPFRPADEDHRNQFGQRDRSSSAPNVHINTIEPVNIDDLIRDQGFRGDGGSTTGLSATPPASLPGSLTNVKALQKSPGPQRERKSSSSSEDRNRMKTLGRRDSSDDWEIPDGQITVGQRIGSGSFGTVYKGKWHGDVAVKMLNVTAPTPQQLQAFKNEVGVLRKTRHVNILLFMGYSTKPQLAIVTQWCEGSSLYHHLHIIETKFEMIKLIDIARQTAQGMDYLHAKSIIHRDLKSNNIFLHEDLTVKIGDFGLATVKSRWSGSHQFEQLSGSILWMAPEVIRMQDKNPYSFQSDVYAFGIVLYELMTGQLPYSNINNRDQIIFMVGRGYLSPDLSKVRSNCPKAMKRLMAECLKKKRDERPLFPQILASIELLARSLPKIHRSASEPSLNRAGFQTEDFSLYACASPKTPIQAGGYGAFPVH
Chain of Serine/threonine-protein kinase B-raf (Homo sapiens), P15056 [V600E] (P15056 whole entry V600E): as the sequence (P15056 whole entry) above, with V600E counted along it

COc1cc2cc(Oc3ccc(NC(=O)Nc4cccc(C(F)(F)F)c4)cc3)c(C)nc2cc1OC
growth at 0.005 µM [1]: 101% | growth at 0.005 µM [2]: 97% | growth at 0.005 µM [3]: 94% | growth at 0.005 µM [4]: 93% | growth at 0.05 µM [5]: 99% | growth at 0.05 µM [6]: 104% | growth at 0.05 µM [7]: 89% | growth at 0.05 µM [8]: 104% | growth at 0.05 µM [9]: 95% | growth at 0.05 µM [10]: 103% | growth at 0.5 µM [11]: 100% | growth at 0.5 µM [12]: 96% | growth at 0.5 µM [13]: 105% | growth at 0.5 µM [14]: 106% | growth at 5 µM [15]: 31% | growth at 5 µM [16]: 26% | growth at 5 µM [17]: 5% | growth at 5 µM [18]: 14% | growth at 5 µM [19]: -35% | growth at 5 µM [20]: -13% | growth at 5 µM [21]: 31% | growth at 50 µM [22]: -61% | growth at 50 µM [23]: -59% | growth at 50 µM [24]: -82% | growth at 50 µM [25]: -46% | growth at 50 µM [26]: -63%

COc1cc2cc(Oc3ccc(NC(=O)Nc4cc(C(F)(F)F)cc(C(F)(F)F)c4)cc3)c(C)nc2cc1OC
growth at 0.1 µM [27]: 104%

COc1cc2cc(Oc3ccc(NC(=O)Nc4ccc(Cl)c(C(F)(F)F)c4)cc3)c(C)nc2cc1OC
inhibition [28]: 74.2% | IC50 [29]: 1330 nM | inhibition [30]: 88.9% | growth at 0.003 µM [31]: 103% | growth at 0.03 µM [32]: 97% | growth at 30 µM [33]: -96%

Cc1nc2cc(O)c(O)cc2cc1Oc1ccc(NC(=O)Nc2ccc(Cl)c(Cl)c2)cc1
growth at 0.3 µM [34]: 99%
